Measured values taken from patent US20090203708A1, “NOVEL SUBSTITUTED-1-H-QUINAZOLINE-2,4-DIONE DERIVATIVES, PREPARATION METHOD THEREOF AND PHARMACEUTICAL COMPOSITION CONTAINING THE SAME” (Korea Research Institute of Chemical Technology, priority 2006, published 2009).

How the values were obtained:
lethality = assay: Lethality (LD50) in mice; assay type: in vivo; conditions: i.p.
D4 (hD4.2 receptor) = molecular target: T1, D4 (hD4.2 receptor) (Homo sapiens, UniProt P21917, DEL265-296); assay: Radioligand binding assay, dopamine D4; conditions: [3H] YM-09151-2 0.06 nM; read-out: Binding affinity IC50 D4
T1 construct: purchased BioSignal Packard Inc., Montreal, Canada
T1 sequence (P21917 with tags, fused parts or gaps DEL265-296): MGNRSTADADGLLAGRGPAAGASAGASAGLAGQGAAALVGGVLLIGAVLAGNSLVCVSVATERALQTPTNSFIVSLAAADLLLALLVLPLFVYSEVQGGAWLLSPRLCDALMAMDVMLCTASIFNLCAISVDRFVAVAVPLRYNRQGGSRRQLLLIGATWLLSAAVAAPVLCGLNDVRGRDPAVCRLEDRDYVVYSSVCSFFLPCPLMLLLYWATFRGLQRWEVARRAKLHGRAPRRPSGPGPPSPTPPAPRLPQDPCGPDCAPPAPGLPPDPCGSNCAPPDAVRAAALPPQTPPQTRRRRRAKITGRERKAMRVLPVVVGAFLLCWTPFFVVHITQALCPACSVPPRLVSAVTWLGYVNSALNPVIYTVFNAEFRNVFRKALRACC
How it was run: (§1)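 Competition binding used human receptor membranes: hD2L with 1 nM [3H]spiperone, and hD4.2 with 0.06 nM [3H]YM-09151-2 in Tris-HCl pH 7.4 with Mg/EDTA/K/Ca. Nonspecific binding was defined with 10 μM haloperidol for D2 and 10 μM clozapine for D4. IC50 was fitted by nonlinear regression from 7–8 concentrations in duplicate, across three assays.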

[1] = tested on: apomorphine-induced PPI disruption; assay: Apomorphine-induced PPI disruption in rat
rotarod deficit = assay: Rotarod deficit in mice; assay type: in vivo; conditions: for Rotarod Deficit TD50: mice, i.p. 30 min before testing
Description: In order to examine the effects of the compounds of the present invention on the central nervous system and behavior, a rotarod test was performed as follows.
Mice were placed on a plastic rod having a node 1 inch in diameter (Ugo-Basile, Milano, Italy), followed by rotating the rod at a speed of 6 rpm. 30, 60, 90 and 120 min after the administration of test compounds, the mice that fell from the rotating rod within 1 min were counted to determine rotarod deficits (%) (Dunham et al., 1957).

D1 receptor = D1 receptor (Homo sapiens, UniProt P21728); assay: Radioligand binding assay, dopamine D1
[2] = molecular target: T2, 5-HT1a (human recombinant receptor, CHO-K1) (Homo sapiens, UniProt P08908); assay: Radioligand binding assay, 5-HT1a
T2 sequence (P08908 1-422): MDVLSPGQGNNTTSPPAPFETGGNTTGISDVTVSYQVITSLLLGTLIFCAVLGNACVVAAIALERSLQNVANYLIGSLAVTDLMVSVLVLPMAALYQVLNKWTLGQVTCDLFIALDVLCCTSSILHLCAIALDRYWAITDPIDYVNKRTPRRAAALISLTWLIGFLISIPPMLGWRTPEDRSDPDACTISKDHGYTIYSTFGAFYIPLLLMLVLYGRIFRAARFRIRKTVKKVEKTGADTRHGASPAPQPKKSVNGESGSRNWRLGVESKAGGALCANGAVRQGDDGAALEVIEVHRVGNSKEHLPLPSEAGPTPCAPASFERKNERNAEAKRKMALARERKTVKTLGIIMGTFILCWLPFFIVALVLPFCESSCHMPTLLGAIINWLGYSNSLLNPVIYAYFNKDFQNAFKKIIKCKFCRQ

[3] = molecular target: 5-HT2a (human recombinant receptor, CHO-K1) (Homo sapiens, UniProt P28223); assay: Radioligand binding assay, 5-HT2a
D3 (hD3 receptor) = D3 (hD3 receptor) (Homo sapiens, UniProt P35462); assay: Radioligand binding assay, dopamine D3
[4] = molecular target: T3, 5-HT2c (human recombinant receptor, CHO-K1) (Homo sapiens, UniProt P28335); assay: Radioligand binding assay, 5-HT2c
T3 sequence (P28335 33-458): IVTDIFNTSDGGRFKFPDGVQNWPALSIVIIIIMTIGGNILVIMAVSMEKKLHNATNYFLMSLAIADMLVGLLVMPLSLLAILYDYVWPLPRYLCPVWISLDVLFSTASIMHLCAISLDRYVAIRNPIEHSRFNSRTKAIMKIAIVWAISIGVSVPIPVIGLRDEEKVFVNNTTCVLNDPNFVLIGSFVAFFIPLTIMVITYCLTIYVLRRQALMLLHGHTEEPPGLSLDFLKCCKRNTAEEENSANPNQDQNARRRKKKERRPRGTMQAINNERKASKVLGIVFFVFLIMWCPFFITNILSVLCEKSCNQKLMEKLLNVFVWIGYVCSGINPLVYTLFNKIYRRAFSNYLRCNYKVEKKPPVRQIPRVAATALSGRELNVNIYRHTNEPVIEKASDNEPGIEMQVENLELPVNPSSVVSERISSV

D2 (hD2L receptor) = molecular target: T4, D2 (hD2L receptor) (Homo sapiens, UniProt P14416); assay: Radioligand binding assay, dopamine D2; conditions: [3H] spiperone 1 nM; read-out: Binding affinity IC50 D2
T4 construct: purchased BioSignal Packard Inc., Montreal, Canada
How it was run: as §1

[5] = molecular target: T5, HeLa cells transfected with human 5-HT6 receptor (Homo sapiens, UniProt P50406); assay: Serotonin-stimulated cAMP accumulation in HeLa cells (EIA); assay type: cell-based
T5 construct: expressed in transfected cells; host or cells: HeLa

[6] = molecular target: 5-HT7 (human recombinant receptor, CHO-K1) (Homo sapiens, UniProt P34969); assay: Radioligand binding assay, 5-HT7
[7] = molecular target: human serotonin 5-HT6 receptor (Homo sapiens, UniProt P50406); assay: [3H]LSD binding assay for cloned 5-HT6 receptors
5-HT6 receptors = 5-HT6 receptors (Homo sapiens, UniProt P50406); conditions: human 5-HT6 receptors, literature; cited from earlier work
[8] = tested on: rat maximal electroseizure threshold; conditions: literature; cited from earlier work
[9] = tested on: yawning, stretching, and chewing; conditions: rats, literature; cited from earlier work
food intake = conditions: literature; cited from earlier work
[10] = tested on: extracellular glutamate levels in the frontal cortex and dorsal hippocampus; conditions: literature; cited from earlier work
[11] = tested on: retention of a previously learned task; conditions: rats, literature; cited from earlier work

T5 sequence (P50406 whole entry): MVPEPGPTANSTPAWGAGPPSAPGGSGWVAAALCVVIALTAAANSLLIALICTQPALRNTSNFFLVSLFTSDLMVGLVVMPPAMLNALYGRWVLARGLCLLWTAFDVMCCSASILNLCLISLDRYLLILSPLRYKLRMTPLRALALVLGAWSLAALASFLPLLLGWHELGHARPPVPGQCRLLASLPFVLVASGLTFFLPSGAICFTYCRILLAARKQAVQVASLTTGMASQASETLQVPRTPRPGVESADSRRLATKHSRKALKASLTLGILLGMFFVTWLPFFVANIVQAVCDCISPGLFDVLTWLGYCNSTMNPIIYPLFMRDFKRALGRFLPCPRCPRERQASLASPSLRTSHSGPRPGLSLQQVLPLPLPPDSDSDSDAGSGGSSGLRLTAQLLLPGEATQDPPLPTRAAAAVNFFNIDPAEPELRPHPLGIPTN
T4 sequence (P14416 whole entry): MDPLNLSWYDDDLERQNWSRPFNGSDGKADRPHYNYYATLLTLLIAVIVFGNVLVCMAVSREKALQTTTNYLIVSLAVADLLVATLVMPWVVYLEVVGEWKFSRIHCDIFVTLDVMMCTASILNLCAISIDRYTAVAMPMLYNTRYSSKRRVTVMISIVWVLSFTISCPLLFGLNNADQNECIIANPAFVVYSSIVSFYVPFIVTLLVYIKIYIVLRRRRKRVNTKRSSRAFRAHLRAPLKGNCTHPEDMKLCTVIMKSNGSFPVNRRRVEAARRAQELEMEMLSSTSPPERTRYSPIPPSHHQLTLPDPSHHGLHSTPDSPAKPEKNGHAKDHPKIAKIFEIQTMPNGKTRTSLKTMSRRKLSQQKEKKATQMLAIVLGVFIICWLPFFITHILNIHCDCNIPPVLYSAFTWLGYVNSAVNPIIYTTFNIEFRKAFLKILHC
Sequence of 5-HT2a (human recombinant receptor, CHO-K1) (P28223 whole entry): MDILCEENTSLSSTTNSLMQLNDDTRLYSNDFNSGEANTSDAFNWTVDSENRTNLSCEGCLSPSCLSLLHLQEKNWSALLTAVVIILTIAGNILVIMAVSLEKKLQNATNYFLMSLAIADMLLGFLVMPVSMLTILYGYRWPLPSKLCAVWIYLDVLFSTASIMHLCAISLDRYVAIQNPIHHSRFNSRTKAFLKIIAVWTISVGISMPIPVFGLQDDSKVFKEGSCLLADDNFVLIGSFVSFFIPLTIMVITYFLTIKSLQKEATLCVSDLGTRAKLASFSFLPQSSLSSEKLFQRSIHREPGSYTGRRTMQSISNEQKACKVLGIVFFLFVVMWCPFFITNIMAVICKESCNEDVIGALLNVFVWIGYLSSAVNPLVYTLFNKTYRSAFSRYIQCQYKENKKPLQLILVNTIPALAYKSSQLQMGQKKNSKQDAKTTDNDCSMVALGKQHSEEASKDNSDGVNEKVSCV
Sequence of 5-HT6 receptors (P50406 whole entry): as the sequence (P50406 whole entry) above
Sequence of human serotonin 5-HT6 receptor (P50406 whole entry): as above
Sequence of 5-HT7 (human recombinant receptor, CHO-K1) (P34969 whole entry): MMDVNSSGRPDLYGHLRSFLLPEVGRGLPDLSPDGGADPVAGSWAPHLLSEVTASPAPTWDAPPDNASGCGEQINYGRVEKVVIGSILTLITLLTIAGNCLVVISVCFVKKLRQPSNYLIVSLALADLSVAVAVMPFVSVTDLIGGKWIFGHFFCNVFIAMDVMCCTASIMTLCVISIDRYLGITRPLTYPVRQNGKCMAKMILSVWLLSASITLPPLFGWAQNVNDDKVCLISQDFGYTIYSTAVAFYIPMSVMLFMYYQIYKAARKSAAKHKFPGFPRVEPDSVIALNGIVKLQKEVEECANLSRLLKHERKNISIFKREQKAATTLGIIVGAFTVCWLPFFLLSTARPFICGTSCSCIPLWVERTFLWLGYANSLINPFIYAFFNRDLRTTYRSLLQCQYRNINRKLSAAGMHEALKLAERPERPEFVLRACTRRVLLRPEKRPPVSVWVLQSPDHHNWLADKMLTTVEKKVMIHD
Sequence of D1 receptor (P21728 whole entry): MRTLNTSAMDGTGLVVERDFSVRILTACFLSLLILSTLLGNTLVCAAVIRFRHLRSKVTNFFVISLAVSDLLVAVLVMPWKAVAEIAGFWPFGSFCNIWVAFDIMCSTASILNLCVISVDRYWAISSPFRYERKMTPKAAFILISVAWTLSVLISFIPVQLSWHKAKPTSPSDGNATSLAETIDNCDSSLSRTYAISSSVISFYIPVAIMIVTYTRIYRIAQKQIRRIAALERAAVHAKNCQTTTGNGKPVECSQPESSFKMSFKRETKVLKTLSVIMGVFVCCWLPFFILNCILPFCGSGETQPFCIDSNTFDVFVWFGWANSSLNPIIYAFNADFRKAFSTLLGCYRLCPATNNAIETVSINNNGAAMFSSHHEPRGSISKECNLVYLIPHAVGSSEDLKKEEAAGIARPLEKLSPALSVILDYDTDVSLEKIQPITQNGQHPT
Sequence of D3 (hD3 receptor) (P35462 whole entry): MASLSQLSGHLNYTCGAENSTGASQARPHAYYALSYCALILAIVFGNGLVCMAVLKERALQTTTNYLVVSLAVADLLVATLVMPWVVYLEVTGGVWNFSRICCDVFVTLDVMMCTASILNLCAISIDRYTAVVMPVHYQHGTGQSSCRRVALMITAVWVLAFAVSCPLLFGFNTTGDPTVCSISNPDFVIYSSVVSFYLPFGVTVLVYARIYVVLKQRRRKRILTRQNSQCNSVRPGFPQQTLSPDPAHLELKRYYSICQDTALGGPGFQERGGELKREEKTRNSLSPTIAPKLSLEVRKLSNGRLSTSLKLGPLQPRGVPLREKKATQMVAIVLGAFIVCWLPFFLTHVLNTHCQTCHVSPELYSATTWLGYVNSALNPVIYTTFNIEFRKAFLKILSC

With C[C@H](c1ccccc1)n1c(=O)c2c(N3CCN(C)CC3)cc(Cl)cc2n(Cc2ccccc2)c1=O [Example 40, 1-benzyl-7-chloro-5-(4-methyl-piperazin-1yl)-3-[(R)-1-phenyl-ethyl]-1H-quinazoline-2,4-dione] as the molecule, how does the “Lethal Degrees LD50” value (lethality) read?
Its value is >300 mg/kg, ip.

What about the IC50 (D4 (hD4.2 receptor)) of the same molecule?
The IC50 was greater than 10000 nM.

And the “effect of compound alone on PPI versus vehicle control” value ([1]; rat, 2.5, 5, 10 and 20 mg/kg i.p. alone)?
Its value is “no significant effects”.

And the “mean startle amplitude versus apomorphine positive control” value ([1]; rat, given 30 min before apomorphine)?
The value was “did not induce significant difference in mean startle amplitude”.

What about the “effect of pretreatment on apomorphine-induced PPI disruption” value ([1]; rat, i.p. 30 min before apomorphine (2 mg/kg, i.p.), 2.5, 5, 10 and 20 mg/kg) of the same molecule?
The value was “found to inhibit apomorphine (2 mg/kg, i.p.)-induced PPI disruption”.

And the “Rotarod Deficit TD50” value (rotarod deficit)?
The value was 139 mg/kg, ip.

And the rotarod dysfunction (rotarod deficit; mouse, in vivo, ip, 150 mg/kg, 120 min)?
Its rotarod dysfunction is 75%.

What about the IC50 (D1 receptor) of the same molecule?
Its IC50 is 2710 nM.

What about the IC50 [2] of the same molecule?
The IC50 was 4350 nM.

And the IC50 [3]?
Its IC50 is 266 nM.

What about the IC50 (D3 (hD3 receptor)) of the same molecule?
Its IC50 is 983 nM.

And the IC50 [4]?
The IC50 was 477 nM.

What about the IC50 (D2 (hD2L receptor)) of the same molecule?
Its IC50 is greater than 10000 nM.

What about the cytotoxicity [5] of the same molecule?
The cytotoxicity was “did not show any cytotoxicity at all”.

What about the “effect on serotonin-stimulated cAMP accumulation (in words)” value ([5]; HeLa cells, FIG. 1) of the same molecule?
The value was “inhibited serotonin-stimulated cAMP accumulation in a dose-dependent manner”.

And the inhibition at 0.001 µM ([5]; HeLa, read-out: inhibition of cAMP increase induced by 0.3 μM serotonin, compound 0.001 μM)?
The inhibition at 0.001 µM was 0%.

And the inhibition at 0.01 µM ([5]; HeLa, read-out: inhibition of cAMP increase induced by 0.3 μM serotonin, compound 0.01 μM)?
The inhibition at 0.01 µM was 35%.

And the inhibition at 0.1 µM ([5]; HeLa, read-out: inhibition of cAMP increase induced by 0.3 μM serotonin, compound 0.1 μM)?
The inhibition at 0.1 µM was 95%.

And the inhibition at 1 µM ([5]; HeLa, read-out: inhibition of cAMP increase induced by 0.3 μM serotonin, compound 1 μM)?
Its inhibition at 1 µM is 100%.

What about the inhibition at 10 µM ([5]; HeLa, read-out: inhibition of cAMP increase induced by 0.3 μM serotonin, compound 10 μM) of the same molecule?
The inhibition at 10 µM was 100%.

What about the IC50 [6] of the same molecule?
The IC50 was 7420 nM.

What about the IC50 [7] of the same molecule?
Its IC50 is 1.6 nM.

Which “pA2, antagonist” value (5-HT6 receptors) does the source give for COc1ccc2c(c1)c(CCN(C)C)cn2S(=O)(=O)c1ccccc1 [MS-245] here?
Its value is 8.88.

Which results are given for CNc1cc(NS(=O)(=O)c2ccc(N)cc2)nc(NC)n1 [Ro 04-6790]?
anticonvulsant activity [8]: possess anticonvulsant activity; induction of yawning, stretching, and chewing behavior [9]: capable of inducing this same effect; food intake by rats (food intake): decreased food intake

With COc1ccc(NS(=O)(=O)c2sc3ccc(Cl)cc3c2C)cc1N1CCNCC1 [SB-271046, reference compound] as the molecule, how does the anticonvulsant activity [8] read?
Its anticonvulsant activity is “possess anticonvulsant activity”.

What about the “Rotarod Deficit TD50” value (rotarod deficit) of the same molecule?
Its value is 112 mg/kg, ip.

And the “extracellular glutamate levels in the frontal cortex and dorsal hippocampus” value [10]?
The value was “increased extracellular glutamate levels in the frontal cortex and dorsal hippocampus by several times”.

What about the “retention of a previously learned task in water maze” value [11] of the same molecule?
Its value is “significant improvement in retention of a previously learned task”.
